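Following 48 hours of exposure in 96-well plates, responses at five concentrations were used to interpolate endpoints linearly. The concentration for 50% growth inhibition is given as GI50. TGI: total growth inhibition.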
How the values were obtained:
Assay in all cases: inhibition of tumour cell growth, NCI panel, 48 h
SK-MEL-5 melanoma = system: SK-MEL-5 melanoma
SK-MEL-28 melanoma = system: SK-MEL-28 melanoma
SF-268 CNS = system: SF-268 CNS
NCI-H460 lung = system: NCI-H460 lung
RPMI-8226 leukemia = system: RPMI-8226 leukemia
MDA-MB-231 breast = system: MDA-MB-231 breast
KM12 colon = system: KM12 colon
A549 NSCLC = system: A549 NSCLC
ACHN renal = system: ACHN renal
MCF7 breast = system: MCF7 breast
SNB-75 CNS = system: SNB-75 CNS
SK-MEL-2 melanoma = system: SK-MEL-2 melanoma
PC-3 prostate = system: PC-3 prostate
NCI/ADR-RES ovarian = system: NCI/ADR-RES ovarian
M14 melanoma = system: M14 melanoma
SR leukemia = system: SR leukemia
OVCAR-5 ovarian = system: OVCAR-5 ovarian
UO-31 renal = system: UO-31 renal
786-0 renal = system: 786-0 renal
HCT-116 colon = system: HCT-116 colon
MOLT-4 leukemia = system: MOLT-4 leukemia
A498 renal = system: A498 renal
DU-145 prostate = system: DU-145 prostate
TK-10 renal = system: TK-10 renal
CAKI-1 renal = system: CAKI-1 renal
LOX IMVI melanoma = system: LOX IMVI melanoma
SK-OV-3 ovarian = system: SK-OV-3 ovarian
IGROV1 ovarian = system: IGROV1 ovarian
HOP-92 NSCLC = system: HOP-92 NSCLC
SNB-19 CNS = system: SNB-19 CNS
SF-539 CNS = system: SF-539 CNS
OVCAR-4 ovarian = system: OVCAR-4 ovarian
UACC-62 melanoma = system: UACC-62 melanoma
HOP-62 NSCLC = system: HOP-62 NSCLC
K-562 leukemia = system: K-562 leukemia
NCI-H23 lung = system: NCI-H23 lung
T-47D breast = system: T-47D breast
COLO 205 colon = system: COLO 205 colon
CCRF-CEM leukemia = system: CCRF-CEM leukemia
NCI-H522 lung = system: NCI-H522 lung
OVCAR-3 ovarian = system: OVCAR-3 ovarian
OVCAR-8 ovarian = system: OVCAR-8 ovarian
HT29 colon = system: HT29 colon
HCC-2998 colon = system: HCC-2998 colon
HS 578T breast = system: HS 578T breast
HCT-15 colon = system: HCT-15 colon
MDA-MB-435 = system: MDA-MB-435
SW-620 colon = system: SW-620 colon
SN12C renal = system: SN12C renal
MALME-3M melanoma = system: MALME-3M melanoma
BT-549 breast = system: BT-549 breast
RXF 393 renal = system: RXF 393 renal
NCI-H226 lung = system: NCI-H226 lung

Cc1ccc2cc3c(cc(C)c4ccccc43)c3c2c1CC3
GI50 (SK-MEL-5 melanoma): > 100 µM | TGI (SK-MEL-5 melanoma): > 100 µM | GI50 (SK-MEL-28 melanoma): > 100 µM | TGI (SK-MEL-28 melanoma): > 100 µM | GI50 (SF-268 CNS): > 100 µM | TGI (SF-268 CNS): > 100 µM | GI50 (NCI-H460 lung): > 100 µM | TGI (NCI-H460 lung): > 100 µM | GI50 (RPMI-8226 leukemia): > 100 µM | TGI (RPMI-8226 leukemia): > 100 µM | GI50 (MDA-MB-231 breast): 48.2 µM | TGI (MDA-MB-231 breast): > 100 µM | GI50 (KM12 colon): > 100 µM | TGI (KM12 colon): > 100 µM | GI50 (A549 NSCLC): > 100 µM | TGI (A549 NSCLC): > 100 µM | GI50 (ACHN renal): 60.1 µM | TGI (ACHN renal): > 100 µM | GI50 (MCF7 breast): 35.2 µM | TGI (MCF7 breast): > 100 µM | GI50 (SNB-75 CNS): 26.7 µM | TGI (SNB-75 CNS): > 100 µM | GI50 (SK-MEL-2 melanoma): > 100 µM | TGI (SK-MEL-2 melanoma): > 100 µM | GI50 (PC-3 prostate): > 100 µM | TGI (PC-3 prostate): > 100 µM | GI50 (NCI/ADR-RES ovarian): > 100 µM | TGI (NCI/ADR-RES ovarian): > 100 µM | GI50 (M14 melanoma): > 100 µM | TGI (M14 melanoma): > 100 µM | GI50 (SR leukemia): 87.5 µM | TGI (SR leukemia): > 100 µM | GI50 (OVCAR-5 ovarian): > 100 µM | TGI (OVCAR-5 ovarian): > 100 µM | GI50 (UO-31 renal): > 100 µM | TGI (UO-31 renal): > 100 µM | GI50 (786-0 renal): > 100 µM | TGI (786-0 renal): > 100 µM | GI50 (HCT-116 colon): > 100 µM | TGI (HCT-116 colon): > 100 µM | GI50 (MOLT-4 leukemia): > 100 µM | TGI (MOLT-4 leukemia): > 100 µM | GI50 (A498 renal): 76 µM | TGI (A498 renal): > 100 µM | GI50 (DU-145 prostate): > 100 µM | TGI (DU-145 prostate): > 100 µM | GI50 (TK-10 renal): 65.6 µM | TGI (TK-10 renal): > 100 µM | GI50 (CAKI-1 renal): > 100 µM | TGI (CAKI-1 renal): > 100 µM | GI50 (LOX IMVI melanoma): > 100 µM | TGI (LOX IMVI melanoma): > 100 µM | GI50 (SK-OV-3 ovarian): > 100 µM | TGI (SK-OV-3 ovarian): > 100 µM | GI50 (IGROV1 ovarian): > 100 µM | TGI (IGROV1 ovarian): > 100 µM | GI50 (HOP-92 NSCLC): 17.4 µM | TGI (HOP-92 NSCLC): 82.3 µM | GI50 (SNB-19 CNS): > 100 µM | TGI (SNB-19 CNS): > 100 µM | GI50 (SF-539 CNS): > 100 µM | TGI (SF-539 CNS): > 100 µM | GI50 (OVCAR-4 ovarian): > 100 µM | TGI (OVCAR-4 ovarian): > 100 µM | GI50 (UACC-62 melanoma): > 100 µM | TGI (UACC-62 melanoma): > 100 µM | GI50 (HOP-62 NSCLC): 58.8 µM | TGI (HOP-62 NSCLC): > 100 µM | GI50 (K-562 leukemia): > 100 µM | TGI (K-562 leukemia): > 100 µM | GI50 (NCI-H23 lung): > 100 µM | TGI (NCI-H23 lung): > 100 µM | GI50 (T-47D breast): > 100 µM | TGI (T-47D breast): > 100 µM | GI50 (COLO 205 colon): > 100 µM | TGI (COLO 205 colon): > 100 µM | GI50 (CCRF-CEM leukemia): > 100 µM | TGI (CCRF-CEM leukemia): > 100 µM | GI50 (NCI-H522 lung): > 100 µM | TGI (NCI-H522 lung): > 100 µM | GI50 (OVCAR-3 ovarian): > 100 µM | TGI (OVCAR-3 ovarian): > 100 µM | GI50 (OVCAR-8 ovarian): > 100 µM | TGI (OVCAR-8 ovarian): > 100 µM | GI50 (HT29 colon): > 100 µM | TGI (HT29 colon): > 100 µM | GI50 (HCC-2998 colon): > 100 µM | TGI (HCC-2998 colon): > 100 µM | GI50 (HS 578T breast): 89.1 µM | TGI (HS 578T breast): > 100 µM | GI50 (HCT-15 colon): > 100 µM | TGI (HCT-15 colon): > 100 µM | GI50 (MDA-MB-435): > 100 µM | TGI (MDA-MB-435): > 100 µM | GI50 (SW-620 colon): > 100 µM | TGI (SW-620 colon): > 100 µM | GI50 (SN12C renal): > 100 µM | TGI (SN12C renal): > 100 µM | GI50 (MALME-3M melanoma): > 100 µM | TGI (MALME-3M melanoma): > 100 µM | GI50 (BT-549 breast): > 100 µM | TGI (BT-549 breast): > 100 µM | GI50 (RXF 393 renal): 57.2 µM | TGI (RXF 393 renal): > 100 µM | GI50 (NCI-H226 lung): > 100 µM | TGI (NCI-H226 lung): > 100 µM

Source: PubChem BioAssay (NCI)
